Patent US7109329B2, “Neurologically active compounds and compounds with multiple activities” (priority 1988, dated 2006)

Experiments:
[1] = Treatment of spinal cord injured rats and cats with alpha-adrenoceptor agonists; assay type: in vivo
Method: The animals are treated with a guanidino compound, e.g., guanphylline or aminoguanphylline, twice daily (1 mg/kg). Approximately 10, 14 and 20 days after treatment with, e.g., guanphylline or aminoguanphylline is commenced, these animals can also be treated with a serotonergic (“5-HT”) receptor agonist; such as quipazine (1–2 mg/kg). Such serotonergic compounds can accelerate the recovery period, i.e., shorten the period after which time the animals become mobile. The animals should then continue to be treated systemically with the guanidino compound twice daily for six to eight weeks, or until functional recovery has been achieved.
Many rats and cats have been treated with several alpha-adrenoceptor agonists in order to ascertain which drug has the least side effects and reduces the time period for recovery.

[2] = Method: Room temperature was 21.5° C.
The core temperatures of the rats were allowed to fall to approximately 30° C., after about 15 minutes. At that time, the rats were placed in a temperature controlled room maintained at 42° C., together with 2 control rats treated only with the dextrose solution.
The core temperatures of the rats were allowed to fall to approximately 30° C. At that time, the rats were placed in a temperature controlled room maintained at 42° C., together with two control rats treated only with the dextrose solution.

[3] = Core temperature of treated rats in a room at minus 30° C.; assay type: in vivo, rat; conditions: four rats, 4 mg intraperitoneally, placed about 30 minutes after injection
Method: (room temperature). […] (plus or minus 0.5° C.). The core temperatures of the four treated rats, as well as that of two control rats who received only the dextrose solution, were continuously monitored.

[4] = Spinal cord transection in rats: recovery of hind limb function and reflexes under treatment; assay type: in vivo, rat
Method: The spinal cord of a group of rats was completely transected. After surgery, the rats were treated with guanabenz.
The rats presented with a condition of bloody eyes and nose for a period of 2 to 5 days after the transection. During the first two-weeks, proper plantar placement, weight bearing on the hind limbs and/or coordinated walking was not present.
In a further group of six rats the spinal cord was transected in accordance with the above Comparative Examples. After surgery and cleaning and mechanical treatment of the wounds in the same fashion, an intraperitoneal injection of 7-(guanidino-acetyl-theophylline (“C”) was administered at a dose of 5.0 mg/kg 24 hours post surgery. Within a 7 to 9 day period, the rats engaged in walking movements of the hind limbs coordinated with those of the front limbs and the hind limbs, including proper plantar placement and full weight bearing on the hind limbs.
Within 36 hours after the spinal cord transection, i.e., only 12 hours after initial administration of Compound C, the initial bloody eyes and nose condition had abated. […] Further the animals were alert and continued to eat in substantially normal quantities.
Starting 24 hours post-transection, immediately after each intraperitoneal administration of Compound C, reflexes such as the tail-flick and cross-extension would return, within 12 minutes post injection. […] Within 8 to 11 days the response became sustained, and was accompanied by long-term therapeutic restoration of coordinated movements, plantar placements and weight-bearing by the hind limbs.

[5] = Spinal cord trauma (500 g-cm weight drop at T4) in cats: urinary bladder function, micturition; assay type: in vivo, cat
Method: A cat was anesthetized using intravenous pentobarbital (30 mg/kg) after which its arterial blood pressure was continuously monitored for at least two hours. After recording stable arterial blood pressure, a dorsal laminectomy was performed in the thoracic region of the cat from T3 to T5; after restoration of blood pressure, the cat was traumatized by means of a twenty gram weight being dropped from a height of twenty-five centimeters (500 g-cm force) on the exposed dura of the spinal cord at the fourth thoracic segment.
Ten cats were spinally traumatized in accordance with the procedure set forth above in Comparative Example A. Five of these spinal cats were treated with Compound C commencing three hours after trauma and five of the cats were treated with guanabenz beginning at the same time.
Spinalized cats required eight weeks of treatment with guanabenz before regaining controlled micturition. Cats treated with Compound C, required only three to five weeks of treatment to achieve the same results.

[6] = Electrical tail stimulation, vocalization threshold (anesthesia) in rats; assay type: in vivo, rat
Method: A fifth rat was treated with merely an equal amount of the dextrose solution without guanabenz acetate. The rats were subjected to an electrical tail stimulation, by electrodes attached to their tails, to determine the point of positive (threshold) vocalization.
The normal vocalization threshold, and the point at which the control rat vocalized was approximately 7 volts. […] To bring the rats out of anesthesia, the rats were then injected with 40 mgs. of aminophylline, also in 1 ml of a 5% aqueous dextrose solution. […] The normal threshold for vocalization was reestablished, as there was no vocalization at 6 volts following recovery from anesthesia.
The rats were maintained under anaesthesia for a period of 50 minutes before injection of the aminophylline.

[7] = Anesthesia in rats judged by reflexes and wakefulness
[8] = Brain and core temperature of treated rats in a room at 4°–5°; assay type: in vivo, Sprague-Dawley rats; conditions: 12 mg/kg IP
Method: All sixteen rats were placed in a temperature-controlled room maintained at 4°–5° d. immediately after injection.

[9] = Intravenous anesthesia of a 70 kg mammal; assay type: in vivo
Method: Thereafter, an intravenous injection containing 20 mg of aminophylline is administered over a period of five minutes. The large mammal is fully awakened within about 20 minutes, appearing alert and refreshed.
The period of time required to fully reverse the anesthesia can be increased or decreased by proportionally changing the amount of the antagonist. After metabolism of guanabenz, the mammal will spontaneously awaken, within about three to six hours after the I.V. drip is discontinued.

[10] = Formation of scar tissue at the trauma site; assay type: in vivo
Excerpt: It is believed that these mixed agonists interfere with triple helix formation in the synthesis of collagen protein, thus preventing or reducing the formation of hard scar tissue at the trauma site.
The purpose of liquid nitrogen is to reduce the structural integrity of the collagen laden, glial scar tissue, by freezing and defrosting. Collagenase then initiates a debridgement of the scar without attacking the nervous and osseous tissue. If required, streptokinase, or alteplase, both plasminogen activators can also be used to bring about a complete debridgement. In addition to 3-amino-propionitrile (a latherogen), 5-fluorodeoxyuridine and dehydroproline can be used to arrest further glial and fibroblastic invasion of the scar region, respectively.

[11] = 4 mg I.P., room temperature 21.5° C.
[12] = Sprague-Dawley rats, 4 mg, tolazoline 4 mg intravenously about twenty minutes before

With `Cn1c(=O)c2c(ncn2C(=O)CNC(=N)N)n(C)c1=O` [7-(guanidinoacetyl)-theophylline] the “efficacy in treated rats and cats” value [1] was “found efficacious”.
With `N=C(N)N/N=C/c1c(Cl)cccc1Cl` [guanabenz] the mean intraperitoneal temperature [2, 11] was 31.5 °C, the “temperatures of the liver and the kidneys” value [2, 11] was “about 33.5 °C” and the “core temperature (colonic measurement) after drop” value ([2]; eight rats each, 4 mg I.P. in 5% dextrose, room temperature 21.5° C., normal value 36.5° C.) was 22.5 °C. For the same molecule, the “core temperature after drop” value ([2]; four rats, 4 mg intraperitoneally, room temperature 21° C., before cold room) was 21 °C, the “core temperature approximately 15 minutes after placement in the cold room” value [3] was ~16 °C and the “muscle mass of hind limbs” value ([4]; spinal transected rats under I.P. treatment) was “some, but not significant loss of muscle mass”. The “duration of sedation following each administration” value ([4]; spinal transected rats, 0.65 mg/kg I.P. twice per day from 72 hours after the lesion) was 2 to 4 h, the “time of treatment until proper plantar placement, weight bearing on the hind limbs and coordinated walking movements” value ([4]; spinal transected rats, 0.65 mg/kg I.P. twice per day, majority of the rats) was “third week” and the “urinary bladder function at urodynamic examination” value ([5]; spinal cats, 0.65 mg/kg bid from three hours after trauma, guanabenz four to five weeks after treatment began, Compound C after seven to twenty-one days) was “tight urinary sphincter and dyssinergia”. For the same molecule, the “treatment required before regaining controlled micturition” value ([5]; spinalized cats) was “eight”, the “duration of anesthesia without further administration” value [6, 12] was “four” and the time until anesthetized [6, 12] was “five”. For the same molecule, the “vocalization threshold on electrical tail stimulation (failed to vocalize)” value ([6]; rats 310–350 g, 4 mg intraperitoneally, beginning seven minutes after injection, normal threshold 7 volts) was > 10 volts, the “vocalization threshold on electrical tail stimulation (no vocalization response)” value ([6]; rats, 4 mg intraperitoneally, thereafter (profoundly anesthetized)) was > 40 Volts and the “anesthetic state of the treated rats” value [7, 11] was “anesthetized”. The “I.P. amount sufficient to initially place the rats in an anesthetized condition” value ([7]; laboratory rats, I.P.) was 12 mg per kilogram of body weight, the “behavior after the experiment” value [8] was “resume normal behavior” and the “core temperature lower than the brain temperature by” value ([8]; ultimately) was 10 °C. For the same molecule, the “mean brain temperature after 45 minutes” value ([8]; 8 rats, original mean 37° C.) was 27 °C, the “total amount in the initial single dose for anesthetic and hypothermic effect” value ([9]; 60 to 75 kg mammal, intravenous injection) was ≤ 0.5 mg/kg and the “reaction to noxious stimulation and corneal reflex” value ([9]; 70 kg mammal, 6 mg intravenous) was “does not overtly react to the noxious stimulation of pin-pricks”. The “time after injection until profound anesthesia” value ([9]; 70 kg mammal, 6 mg intravenous over three minutes) was “five”, the “additional duration of profound anesthesia after the drip” value ([9]; 70 kg mammal, drip 0.1 mg/ml at 1 ml/min for 30 minutes from about 120 minutes after the initial injection) was “about two” and the “time to spontaneous awakening after the I.V. drip is discontinued” value ([9]; large mammal, after metabolism of guanabenz) was “three to six”. For the same molecule, the “effect on formation of the scar” value [10] was “interfere with formation of the scar”.
